Assay results: patent US7417054B2, “Naphthyridine compounds” (Janssen Pharmaceutica N.V., priority 2005, dated 2008)
Counter-ions that a name gives are not always drawn. Like-named read-outs stand apart in the source and are kept apart here.

Columns and labels:
human H3 receptor [1] = molecular target: T1, human H3 receptor (Homo sapiens, UniProt Q9Y5N1); assay: H3 receptor binding, N-[3H]-α-methylhistamine displacement on SK-N-MC cell membranes; details: cloned human H3 receptor in SK-N-MC cell membranes; 0.8 nM N-[3H]-α-methylhistamine; 60 min at 25° C.
T1 construct: expressed in transfected cells; host or cells: SK-N-MC cells
T1 sequence (Q9Y5N1 whole entry): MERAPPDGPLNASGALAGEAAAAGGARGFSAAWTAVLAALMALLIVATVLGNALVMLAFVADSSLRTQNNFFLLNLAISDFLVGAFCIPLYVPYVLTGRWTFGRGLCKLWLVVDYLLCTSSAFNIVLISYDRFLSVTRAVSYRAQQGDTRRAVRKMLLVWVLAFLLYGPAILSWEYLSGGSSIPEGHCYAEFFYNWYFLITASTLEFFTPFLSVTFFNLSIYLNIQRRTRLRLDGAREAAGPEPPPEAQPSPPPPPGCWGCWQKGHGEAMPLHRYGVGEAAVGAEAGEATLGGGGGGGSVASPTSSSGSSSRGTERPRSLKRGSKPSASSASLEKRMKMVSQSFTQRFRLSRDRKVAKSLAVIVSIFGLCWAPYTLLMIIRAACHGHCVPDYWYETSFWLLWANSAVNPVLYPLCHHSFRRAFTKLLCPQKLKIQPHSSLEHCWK

human H3 receptor [2] = molecular target: T1, human H3 receptor; assay: Cyclic AMP accumulation, β-galactosidase reporter in SK-N-MC cells; type: cell-based
Experimental: Sublines of SK-N-MC cells were created that expressed a reporter construct and the human H3 receptor. The reporter gene (β-galactosidase) is under the control of multiple cyclic AMP responsive elements. In 96-well plates, histamine was added directly to the cell media followed 5 min later by an addition of forskolin (5 μM final concentration). When appropriate, antagonists were added 10 min prior to agonist addition. After a 6-h incubation at 37° C., the media was aspirated and the cells washed with 200 μL of phosphate-buffered saline followed by a second aspiration. Cells were lysed with 25 μL 0.1× assay buffer (10 mM Na-phosphate, pH 8, 0.2 mM MgSO4, 0.01 mM MnCl2) and incubated at rt for 10 min. Cells were then incubated for 10 min with 100 μL of 1× assay buffer containing 0.5% Triton and 40 mM β-mercaptoethanol. Color was developed using 25 μL of 1 mg/mL substrate solution (chlorophenolred β-D galactopyranoside; Roche Molecular Biochemicals, Indianapolis, Ind.) Color was quantitated on a microplate reader at absorbance 570 nm.

Rat SERT = Rat SERT (Rattus norvegicus, UniProt P31652); assay: Rat brain SERT binding, [3H]-Citalopram displacement on rat brain membranes
Rat SERT, sequence (P31652 whole entry): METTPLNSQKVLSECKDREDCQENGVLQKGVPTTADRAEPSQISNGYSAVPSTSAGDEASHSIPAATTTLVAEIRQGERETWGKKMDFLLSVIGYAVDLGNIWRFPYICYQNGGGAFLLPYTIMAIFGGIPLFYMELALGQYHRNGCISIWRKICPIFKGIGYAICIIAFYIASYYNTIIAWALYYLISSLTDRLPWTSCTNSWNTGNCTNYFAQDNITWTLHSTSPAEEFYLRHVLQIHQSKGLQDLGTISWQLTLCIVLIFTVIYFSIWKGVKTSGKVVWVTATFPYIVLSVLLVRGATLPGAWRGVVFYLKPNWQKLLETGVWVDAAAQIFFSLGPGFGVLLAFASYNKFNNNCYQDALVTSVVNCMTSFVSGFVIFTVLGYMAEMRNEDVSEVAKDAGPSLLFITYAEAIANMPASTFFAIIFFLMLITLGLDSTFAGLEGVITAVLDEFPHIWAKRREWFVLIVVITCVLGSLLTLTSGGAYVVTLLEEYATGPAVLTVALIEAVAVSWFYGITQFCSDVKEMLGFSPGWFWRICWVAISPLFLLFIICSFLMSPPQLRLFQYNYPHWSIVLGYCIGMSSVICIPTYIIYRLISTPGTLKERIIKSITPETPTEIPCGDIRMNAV

human SERT = molecular target: T2, human SERT (Homo sapiens, UniProt P31645); assay: Human SERT binding, 3H-citalopram displacement on HEK293 membranes; details: HEK293 membranes expressing the human SERT, rt for 1 h
T2 construct: expressed in transfected cells; host or cells: HEK293
T2 sequence (P31645 whole entry): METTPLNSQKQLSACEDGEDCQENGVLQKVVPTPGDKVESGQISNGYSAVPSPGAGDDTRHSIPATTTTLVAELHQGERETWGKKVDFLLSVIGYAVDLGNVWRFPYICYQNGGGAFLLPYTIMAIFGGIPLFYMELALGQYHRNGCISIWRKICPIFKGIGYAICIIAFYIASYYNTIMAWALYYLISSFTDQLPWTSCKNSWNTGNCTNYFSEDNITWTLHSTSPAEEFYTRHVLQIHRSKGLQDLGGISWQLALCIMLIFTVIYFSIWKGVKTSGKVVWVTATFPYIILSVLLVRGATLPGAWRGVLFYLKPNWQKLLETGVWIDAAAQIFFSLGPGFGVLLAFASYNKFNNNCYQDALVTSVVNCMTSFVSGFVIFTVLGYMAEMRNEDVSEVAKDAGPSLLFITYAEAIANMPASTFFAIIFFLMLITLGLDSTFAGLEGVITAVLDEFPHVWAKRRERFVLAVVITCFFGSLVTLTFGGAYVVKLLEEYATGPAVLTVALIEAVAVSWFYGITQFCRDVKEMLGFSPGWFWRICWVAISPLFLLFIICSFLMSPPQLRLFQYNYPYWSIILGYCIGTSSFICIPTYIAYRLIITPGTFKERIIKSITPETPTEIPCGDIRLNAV
Experimental: Homogenized HEK293 (Human Embryonic Kidney) membranes expressing the human SERT were incubated with ^3H-citalopram (SERT) at rt for 1 h in 50 mM Tris, 120 mM NaCl, 5 mM KCl (pH 7.4). […] The membranes were washed and the radioactivity was counted as above.

[3] = Rat SERT Ki (nM), rat brain membranes without cerebellum, 0.6 nM [3H]-Citalopram, 60 min at 25° C.
[4] = read-out: Rat SERT Ki, rat brain membranes without cerebellum, 0.6 nM [3H]-Citalopram, 60 min at 25° C.

Ki (human H3 receptor [1])	Kb (human H3 receptor [2]; read-out: pA2 (converted))	Ki (Rat SERT)	Ki (Rat SERT; [3])	Ki (human SERT)	SMILES	Kb (human H3 receptor [2])	Ki (Rat SERT; [4])
2 nM	1 nM	186 nM	–	–	CN1Cc2cc(OCCCN3CCCCC3)ncc2C(c2cccc(F)c2)C1 (centres unmarked) [Example 34, 4-(3-Fluoro-phenyl)-2-methyl-7-(3-piperidin-1-yl-propoxy)-1,2,3,4-tetrahydro-[2,6]-naphthyridine]	–	–
2 nM	2.51 nM	2000 nM	–	–	Fc1cccc(C2CNCc3cc(OCCCN4CCCCC4)ncc32)c1 (centres unmarked) [Example 32, 4-(3-Fluoro-phenyl)-7-(3-piperidin-1-yl-propoxy)-1,2,3,4-tetrahydro-[2,6]naphthyridine]	–	–
1 nM	0.794 nM	1000 nM	–	–	Fc1ccccc1C1CNCc2cc(OCCCN3CCCCC3)ncc21 (centres unmarked) [Example 1, 4-(2-Fluoro-phenyl)-7-(3-piperidin-1-yl-propoxy)-1,2,3,4-tetrahydro-[2,6]naphthyridine]	–	–
2 nM	2.51 nM	–	269 nM	–	Clc1cccc(C2CNCc3cc(OCCCN4CCCCC4)ncc32)c1 (centres unmarked) [Example 24, 4-(3-Chloro-phenyl)-7-(3-piperidin-1-yl-propoxy)-1,2,3,4-tetrahydro-[2,6]naphthyridine]	–	–
1 nM	3.16 nM	142 nM	–	–	Fc1ccc(C2CNCc3cc(OCCCN4CCCCC4)ncc32)cc1Cl (centres unmarked) [Example 33, 4-(3-Chloro-4-fluoro-phenyl)-7-(3-piperidin-1-yl-propoxy)-1,2,3,4-tetrahydro-[2,6]naphthyridine]	–	–
1 nM	2 nM	–	1200 nM	–	CCN(CC)CCCOc1cc2c(cn1)C(c1ccccc1)CNC2 (centres unmarked) [Example 5, Diethyl-[3-(8-phenyl-5,6,7,8-tetrahydro-[2,6]naphthyridin-3-yloxy)-propyl]-amine]	–	–
1 nM	1 nM	179 nM	–	–	COc1cccc(C2CNCc3cc(OCCCN4CCCCC4)ncc32)c1 (centres unmarked) [Example 13, 4-(3-Methoxy-phenyl)-7-(3-piperidin-1-yl-propoxy)-1,2,3,4-tetrahydro-[2,6]-naphthyridine]	–	–
78 nM	–	623 nM	–	2000 nM	COc1ccc(C2CN(C)Cc3cc(CCCCN4CCCCC4)cnc32)cc1 (centres unmarked) [Example 49, 8-(4-Methoxy-phenyl)-6-methyl-3-(4-piperidin-1-yl-butyl)-5,6,7,8-tetrahydro-[1,6]-naphthyridine trifluoroacetic acid salt]	–	–
44 nM	–	–	64 nM	611 nM	Clc1ccc(C2CNCc3cc(OCCCN4CCOCC4)ncc32)cc1Cl (centres unmarked) [Example 26, 4-(3,4-Dichloro-phenyl)-7-(3-morpholin-4-yl-propoxy)-1,2,3,4-tetrahydro-[2,6]-naphthyridine]	–	–
13 nM	–	–	–	66 nM	CCN(CC)CCCOc1cc2c(cn1)C(c1ccc(OC)cc1)CN(C)C2 (centres unmarked) [Example 29, Diethyl-{3-[8-(4-methoxy-phenyl)-6-methyl-5,6,7,8-tetrahydro-[2,6]naphthyridin-3-yloxy]-propyl}-amine]	–	19 nM

SMILES	Ki (human H3 receptor [1])	Kb (human H3 receptor [2]; read-out: pA2 (converted))	Ki (Rat SERT)	Ki (Rat SERT; [3])	Ki (human SERT)	Kb (human H3 receptor [2])	Ki (Rat SERT; [4])
c1ccc(C2CNCc3cc(OCCCN4CCOCC4)ncc32)cc1 (centres unmarked) [Example 47, 7-(3-Morpholin-4-yl-propoxy)-4-phenyl-1,2,3,4-tetrahydro-[2,6]naphthyridine]	11 nM	–	–	–	–	12.6 nM	–
Clc1ccc(C2CNCc3cc(OCCCN4CCCCC4)ncc32)cc1Cl (single isomer, unassigned; enantiomer b) [Example 46, 4-(3,4-Dichloro-phenyl)-7-(3-piperidin-1-yl-propoxy)-1,2,3,4-tetrahydro-[2,6]-naphthyridine (enantiomer B)]	13 nM	–	–	17 nM	16 nM	–	–
COc1cccc(C2CN(C)Cc3cc(OCCCN4CCCCC4)ncc32)c1 (centres unmarked) [Example 14, 4-(3-Methoxy-phenyl)-2-methyl-7-(3-piperidin-1-yl-propoxy)-1,2,3,4-tetrahydro-[2,6]-naphthyridine]	8 nM	–	–	–	303 nM	–	59 nM
